Molecular target: 5-hydroxytryptamine receptor 1A (Sus scrofa)
Test: Compound was tested in vitro for its ability to compete with [3H]8-OH-DPAT at 5-hydroxytryptamine 1A receptor in porcine brain homogenate

Ki: 2.2 µM
SMILES: N#Cc1cccc2c(CN3CCN(c4ccc(Cl)cc4)CC3)cnn12 [3-[4-(4-Chloro-phenyl)-piperazin-1-ylmethyl]-pyrazolo[1,5-a]pyridine-7-carbonitrile]
